Measurements: the supplement of paper PMC10307832

What follows are cell lines tested with CN(C)C(=N)NC(=N)N [Metformin] + COc1cccc2cc(-c3nc([C@H]4CC[C@H](C(=O)O)CC4)n4ncnc(N)c34)[nH]c12 [OSI-027] (partner 0.5 µM) (assay: relative viability (nuclei count vs DMSO), 5 days (fraction); higher = more cells survive). Settings: first compound 10 µM.
How it was run: (§1)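 Lung cancer cell lines in 1536-well plates got either a single drug or a fixed anchor-drug dose together with five library-drug doses (not always all listed) in √10 steps, by pin tool, on the day after seeding. Nuclei were counted after 5 days, and relative viability is the treated-to-vehicle ratio of nuclei counts. Values are medians of duplicate plates.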

Row | Cell Line | relative viability
1 | NCI-H522 | 0.796
2 | NCI-H647 | 0.721
3 | NCI-H650 | 0.517
4 | NCI-H661 | 0.6
5 | NCI-H727 | 0.543
6 | NCI-H838 | 0.544
7 | NCI-H1355 | 0.434
8 | NCI-H1395 | 0.74
9 | NCI-H1437 | 1.21
10 | NCI-H1650 | 0.887
11 | NCI-H1651 | 0.904
12 | NCI-H1666 | 0.97
13 | NCI-H1734 | 0.653
14 | NCI-H1755 | 0.614
15 | NCI-H1793 | 0.395
16 | NCI-H1944 | 0.428
17 | NCI-H1975 | 0.96
18 | NCI-H1993 | 0.587
19 | NCI-H2009 | 0.754
20 | NCI-H2023 | 0.421
21 | NCI-H2085 | 0.649
22 | NCI-H2126 | 0.682
23 | NCI-H2170 | 0.566
24 | NCI-H2228 | 0.81

Same assay, conditions: first compound 31.62 µM

Row | Cell Line | relative viability
25 | NCI-H522 | 0.752
26 | NCI-H647 | 0.853
27 | NCI-H650 | 0.549
28 | NCI-H661 | 0.617
29 | NCI-H727 | 0.726
30 | NCI-H838 | 0.624
31 | NCI-H1355 | 0.373
32 | NCI-H1395 | 0.899
33 | NCI-H1437 | 1.23
34 | NCI-H1650 | 0.889
35 | NCI-H1651 | 1.02
36 | NCI-H1666 | 0.974
37 | NCI-H1734 | 0.581
38 | NCI-H1755 | 0.729
39 | NCI-H1792 | 0.91
40 | NCI-H1915 | 0.666
41 | NCI-H1944 | 0.401
42 | NCI-H1975 | 1.08
43 | NCI-H1993 | 0.603
44 | NCI-H2009 | 0.821
45 | NCI-H2023 | 0.558
46 | NCI-H2085 | 0.54
47 | NCI-H2087 | 0.753
48 | NCI-H2126 | 0.725
49 | NCI-H2170 | 0.52
50 | NCI-H2228 | 0.551

Same assay, conditions: first compound 100 µM

Row | Cell Line | relative viability
51 | NCI-H522 | 0.708
52 | NCI-H647 | 0.538
53 | NCI-H650 | 0.535
54 | NCI-H661 | 0.487
55 | NCI-H727 | 0.736
56 | NCI-H838 | 0.563
57 | NCI-H1355 | 0.396
58 | NCI-H1395 | 0.669
59 | NCI-H1437 | 1.06
60 | NCI-H1650 | 0.837
61 | NCI-H1651 | 1.03
62 | NCI-H1666 | 1.05
63 | NCI-H1734 | 0.537
64 | NCI-H1755 | 0.701
65 | NCI-H1792 | 0.909
66 | NCI-H1793 | 0.315
67 | NCI-H1915 | 0.651
68 | NCI-H1944 | 0.402
69 | NCI-H1975 | 0.748
70 | NCI-H1993 | 0.554
71 | NCI-H2009 | 0.752
72 | NCI-H2023 | 0.379
73 | NCI-H2085 | 0.721
74 | NCI-H2087 | 0.73
75 | NCI-H2126 | 0.8
76 | NCI-H2170 | 0.683
77 | NCI-H2228 | 0.456

Same assay, conditions: first compound 316.23 µM

Row | Cell Line | relative viability
78 | NCI-H522 | 0.744
79 | NCI-H647 | 0.485
80 | NCI-H650 | 0.584
81 | NCI-H661 | 0.613
82 | NCI-H727 | 0.545
83 | NCI-H838 | 0.508
84 | NCI-H1355 | 0.416
85 | NCI-H1395 | 0.693
86 | NCI-H1437 | 1
87 | NCI-H1650 | 0.771
88 | NCI-H1651 | 0.954
89 | NCI-H1666 | 0.99
90 | NCI-H1734 | 0.544
91 | NCI-H1755 | 0.636
92 | NCI-H1792 | 0.697
93 | NCI-H1793 | 0.238
94 | NCI-H1915 | 0.56
95 | NCI-H1944 | 0.425
96 | NCI-H1975 | 0.891
97 | NCI-H1993 | 0.507
98 | NCI-H2009 | 0.692
99 | NCI-H2023 | 0.397
100 | NCI-H2085 | 0.718
101 | NCI-H2087 | 0.536
102 | NCI-H2126 | 0.787
103 | NCI-H2170 | 0.673
104 | NCI-H2228 | 0.513

Same assay, conditions: first compound 1000 µM

Row | Cell Line | relative viability
105 | NCI-H522 | 0.667
106 | NCI-H647 | 0.924
107 | NCI-H650 | 0.607
108 | NCI-H661 | 0.642
109 | NCI-H727 | 0.48
110 | NCI-H838 | 0.515
111 | NCI-H1355 | 0.406
112 | NCI-H1395 | 0.75
113 | NCI-H1437 | 1.04
114 | NCI-H1650 | 0.38
115 | NCI-H1651 | 1.1
116 | NCI-H1666 | 0.939
117 | NCI-H1734 | 0.618
118 | NCI-H1755 | 0.579
119 | NCI-H1792 | 0.678
120 | NCI-H1793 | 0.253
121 | NCI-H1915 | 0.665
122 | NCI-H1944 | 0.455
123 | NCI-H1975 | 0.949
124 | NCI-H1993 | 0.514
125 | NCI-H2009 | 0.601
126 | NCI-H2023 | 0.378
127 | NCI-H2085 | 0.703
128 | NCI-H2087 | 0.482
129 | NCI-H2126 | 0.656
130 | NCI-H2170 | 0.711
131 | NCI-H2228 | 0.792

Each cell line was assayed with N#CC1(c2ccc(NC(=O)c3cccnc3NCc3ccncc3)cc2)CCCC1 [Apatinib] + N=C(N)NC(=N)NCCc1ccccc1 [Phenformin] (partner 250 µM) in the same assay as above. Settings: first compound 0.08 µM.
How it was run: as §1

Row | Cell Line | relative viability
132 | NCI-H522 | 0.708
133 | NCI-H647 | 0.561
134 | NCI-H650 | 0.405
135 | NCI-H661 | 0.279
136 | NCI-H727 | 0.566
137 | NCI-H838 | 0.716
138 | NCI-H1355 | 0.438
139 | NCI-H1395 | 0.464
140 | NCI-H1437 | 0.354
141 | NCI-H1651 | 0.319
142 | NCI-H1666 | 0.567
143 | NCI-H1734 | 0.401
144 | NCI-H1755 | 0.626
145 | NCI-H1792 | 0.5
146 | NCI-H1793 | 0.352
147 | NCI-H1915 | 0.377
148 | NCI-H1944 | 0.209
149 | NCI-H1975 | 0.425
150 | NCI-H1993 | 0.533
151 | NCI-H2009 | 0.494
152 | NCI-H2023 | 0.384
153 | NCI-H2085 | 0.707
154 | NCI-H2087 | 0.499
155 | NCI-H2126 | 0.564
156 | NCI-H2170 | 0.462
157 | NCI-H2228 | 0.423

Same assay, conditions: first compound 0.253 µM

Row | Cell Line | relative viability
158 | NCI-H522 | 0.696
159 | NCI-H647 | 0.64
160 | NCI-H650 | 0.413
161 | NCI-H661 | 0.273
162 | NCI-H727 | 0.542
163 | NCI-H838 | 0.686
164 | NCI-H1355 | 0.443
165 | NCI-H1395 | 0.419
166 | NCI-H1437 | 0.283
167 | NCI-H1650 | 0.503
168 | NCI-H1651 | 0.322
169 | NCI-H1666 | 0.572
170 | NCI-H1734 | 0.481
171 | NCI-H1755 | 0.611
172 | NCI-H1792 | 0.227
173 | NCI-H1793 | 0.318
174 | NCI-H1915 | 0.353
175 | NCI-H1944 | 0.207
176 | NCI-H1975 | 0.387
177 | NCI-H1993 | 0.555
178 | NCI-H2009 | 0.497
179 | NCI-H2023 | 0.481
180 | NCI-H2085 | 0.715
181 | NCI-H2087 | 0.46
182 | NCI-H2126 | 0.501
183 | NCI-H2170 | 0.404
184 | NCI-H2228 | 0.284

Same assay, conditions: first compound 0.8 µM

Row | Cell Line | relative viability
185 | NCI-H522 | 0.638
186 | NCI-H647 | 0.427
187 | NCI-H650 | 0.447
188 | NCI-H661 | 0.273
189 | NCI-H727 | 0.528
190 | NCI-H838 | 0.521
191 | NCI-H1355 | 0.447
192 | NCI-H1395 | 0.454
193 | NCI-H1437 | 0.278
194 | NCI-H1650 | 0.35
195 | NCI-H1651 | 0.309
196 | NCI-H1666 | 0.6
197 | NCI-H1734 | 0.381
198 | NCI-H1755 | 0.628
199 | NCI-H1792 | 0.235
200 | NCI-H1793 | 0.327
201 | NCI-H1915 | 0.334
202 | NCI-H1944 | 0.179
203 | NCI-H1975 | 0.382
204 | NCI-H1993 | 0.528
205 | NCI-H2009 | 0.382
206 | NCI-H2023 | 0.404
207 | NCI-H2085 | 0.752
208 | NCI-H2087 | 0.424
209 | NCI-H2126 | 0.512
210 | NCI-H2170 | 0.373
211 | NCI-H2228 | 0.223

Same assay, conditions: first compound 2.53 µM

Row | Cell Line | relative viability
212 | NCI-H522 | 0.617
213 | NCI-H647 | 0.544
214 | NCI-H650 | 0.385
215 | NCI-H661 | 0.263
216 | NCI-H727 | 0.539
217 | NCI-H838 | 0.507
218 | NCI-H1355 | 0.406
219 | NCI-H1395 | 0.412
220 | NCI-H1437 | 0.252
221 | NCI-H1650 | 0.35
222 | NCI-H1651 | 0.288
223 | NCI-H1666 | 0.53
224 | NCI-H1734 | 0.342
225 | NCI-H1755 | 0.609
226 | NCI-H1792 | 0.111
227 | NCI-H1793 | 0.224
228 | NCI-H1915 | 0.354
229 | NCI-H1944 | 0.18
230 | NCI-H1975 | 0.389
231 | NCI-H1993 | 0.485
232 | NCI-H2009 | 0.264
233 | NCI-H2023 | 0.329
234 | NCI-H2085 | 0.65
235 | NCI-H2087 | 0.339
236 | NCI-H2126 | 0.521
237 | NCI-H2170 | 0.355
238 | NCI-H2228 | 0.29

Same assay, conditions: first compound 8 µM

Row | Cell Line | relative viability
239 | NCI-H522 | 0.669
240 | NCI-H647 | 0.319
241 | NCI-H650 | 0.374
242 | NCI-H661 | 0.277
243 | NCI-H727 | 0.514
244 | NCI-H838 | 0.518
245 | NCI-H1355 | 0.385
246 | NCI-H1395 | 0.459
247 | NCI-H1437 | 0.251
248 | NCI-H1650 | 0.318
249 | NCI-H1651 | 0.316
250 | NCI-H1666 | 0.564
251 | NCI-H1734 | 0.353
252 | NCI-H1755 | 0.559
253 | NCI-H1792 | 0.184
254 | NCI-H1793 | 0.189
255 | NCI-H1915 | 0.326
256 | NCI-H1944 | 0.159
257 | NCI-H1975 | 0.433
258 | NCI-H1993 | 0.567
259 | NCI-H2009 | 0.219
260 | NCI-H2023 | 0.301
261 | NCI-H2085 | 0.656
262 | NCI-H2087 | 0.374
263 | NCI-H2126 | 0.523
